Source: ChEMBL document CHEMBL5506068 (J Med Chem, 2024)
Active and inactive are the calls of the source. The calls are words filed in the database; no cut-off is given here.

Key:
[1] = biological target: T1, Delta-type opioid receptor (Homo sapiens, UniProt P41143); test: Displacement of [3H]diprenorphine from human DOR expressed in CHO cells assessed as dissociation constant incubated for […] by radioligand binding assay; type: cell-based
[2] = system: Mus musculus; test: Antinociception activity in male Swiss Webster mouse model assessed as increase in maximum possible effect at 10 mg/kg, sc measured after 20 mins by warm-water tail immersion assay relative to control; type: functional
[3] = biological target: Mu-type opioid receptor (Mus musculus, UniProt P42866); test: Displacement of [3H]Naloxone from mouse MOR expressed in CHO cells assessed as dissociation constant incubated for […] by radioligand binding assay; type: cell-based
[4] = system: Mus musculus; test: Antinociception activity in male Swiss Webster mouse model assessed as increase in maximum possible effect at 10 mg/kg, sc administered as single dose measured after 20 mins in presence of morphine by warm-water tail immersion assay relative to control; type: functional
[5] = biological target: Kappa-type opioid receptor (Mus musculus, UniProt P33534); test: Displacement of [3H]diprenorphine from mouse KOR expressed in CHO cells assessed as dissociation constant incubated for […] by radioligand binding assay; type: cell-based
[6] = organism: Mus musculus; test: Selectivity ratio of Kd for mouse MOR to Kd for mouse KOR
[7] = biological target: T1, Delta-type opioid receptor; test: Agonist activity at human DOR expressed in CHO cells increase in [35S]GTPgammaS binding measured after […] by scintillation counter analysis relative to SNC80; type: functional, cell-based; details: filed as agonist
[8] = system: Mus musculus; test: Antinociception activity in male Swiss Webster mouse model assessed as increase in maximum possible effect at 0.05 mg/kg, sc measured after 3 to 5 hrs post injection by warm-water tail immersion assay; type: functional, organism-based; details: time 3-5 hrs
[9] = system: Mus musculus; test: Antinociception activity in male Swiss Webster mouse model assessed as increase in maximum possible effect at 0.05 mg/kg, sc measured after 30 to 60 mins post injection by warm-water tail immersion assay; type: functional, organism-based; details: time 30-60 min
[10] = biological target: T1, Delta-type opioid receptor; test: Binding affinity to DOR (unknown origin) assessed as dissociation constant
[11] = system: Mus musculus; test: Antinociception activity in male Swiss Webster mouse model assessed as effective dose administered as sc dose measured after 20 mins by warm-water tail immersion assay; type: functional
[12] = biological target: T1, Delta-type opioid receptor

Kappa-type opioid receptor, sequence (P33534 whole entry): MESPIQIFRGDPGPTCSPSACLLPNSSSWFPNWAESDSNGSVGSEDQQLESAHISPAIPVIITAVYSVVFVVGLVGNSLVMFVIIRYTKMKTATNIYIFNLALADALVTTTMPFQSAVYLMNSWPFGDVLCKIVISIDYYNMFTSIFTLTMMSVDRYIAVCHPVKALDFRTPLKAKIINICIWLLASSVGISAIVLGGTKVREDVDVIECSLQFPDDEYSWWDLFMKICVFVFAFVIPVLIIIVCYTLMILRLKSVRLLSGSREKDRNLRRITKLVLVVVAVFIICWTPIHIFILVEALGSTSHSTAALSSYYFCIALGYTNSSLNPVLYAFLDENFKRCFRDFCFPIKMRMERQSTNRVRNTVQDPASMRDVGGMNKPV
Mu-type opioid receptor, sequence (P42866 whole entry): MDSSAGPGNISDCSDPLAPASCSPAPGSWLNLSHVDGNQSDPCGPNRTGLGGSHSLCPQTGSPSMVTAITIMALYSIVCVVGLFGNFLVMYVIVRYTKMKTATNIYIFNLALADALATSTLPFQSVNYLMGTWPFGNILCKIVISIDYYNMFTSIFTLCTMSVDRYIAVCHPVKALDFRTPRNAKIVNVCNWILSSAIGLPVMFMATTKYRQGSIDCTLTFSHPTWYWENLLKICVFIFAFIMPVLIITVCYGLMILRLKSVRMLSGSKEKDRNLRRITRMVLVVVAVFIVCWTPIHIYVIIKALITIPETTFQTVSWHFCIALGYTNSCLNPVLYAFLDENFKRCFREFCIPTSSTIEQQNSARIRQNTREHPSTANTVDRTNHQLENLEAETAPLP
T1 sequence (P41143 whole entry): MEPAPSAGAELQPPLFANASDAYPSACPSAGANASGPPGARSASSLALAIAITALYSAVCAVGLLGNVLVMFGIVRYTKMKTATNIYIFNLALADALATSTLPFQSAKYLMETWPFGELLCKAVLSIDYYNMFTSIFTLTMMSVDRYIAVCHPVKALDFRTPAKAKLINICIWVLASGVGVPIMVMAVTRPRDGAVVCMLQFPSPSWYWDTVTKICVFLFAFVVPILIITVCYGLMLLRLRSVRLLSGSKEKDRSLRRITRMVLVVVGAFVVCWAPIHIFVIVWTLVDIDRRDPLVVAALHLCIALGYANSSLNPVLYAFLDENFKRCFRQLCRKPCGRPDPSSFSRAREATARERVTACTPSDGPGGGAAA

Structure (SMILES) | Kd [1] | MPE [2] | Kd [3] | Kd [5] | other results
Cl.O=C(CCc1ccco1)N[C@H]1CC[C@@]2(O)[C@H]3Cc4cccc5c4[C@@]2(CCN3CC2CC2)[C@H]1O5 | 90.2 nM | <=40% | 53.1 nM | 73.8 nM | MPE [4]: 80%
Cl.O=C(CCc1ccco1)N[C@@H]1CC[C@@]2(O)[C@H]3Cc4cccc5c4[C@@]2(CCN3CC2CC2)[C@H]1O5 | 800 nM | 40% | 27.5 nM | 23.6 nM | –
Cl.O=C(CCc1ccoc1)N[C@H]1CC[C@@]2(O)[C@H]3Cc4cccc5c4[C@@]2(CCN3CC2CC2)[C@H]1O5 | 154 nM | <=40% | 54.5 nM | 161 nM | Ratio [6]: 0; Emax [7]: 93.1%; MPE [4]: 80%
CN1CC[C@]23c4c5ccc(O)c4O[C@H]2[C@@H](O)C=C[C@H]3[C@H]1C5 | – | – | – | – | Activity [8]: inactive; Activity [9]: Active
Cl.O=C(/C=C/c1ccco1)N[C@H]1CC[C@@]2(O)[C@H]3Cc4cccc5c4[C@@]2(CCN3CC2CC2)[C@H]1O5 | 456 nM | <=40% | 107 nM | 249 nM | Ratio [6]: 0; MPE [4]: 100%
CN(C(=O)/C=C/c1ccoc1)[C@H]1CC[C@@]2(O)[C@H]3Cc4ccc(O)c5c4[C@@]2(CCN3CC2CC2)[C@H]1O5.Cl | – | 100% | – | – | Kd [10]: 0.64 nM; ED50 [11]: 0.037 mg/kg; EC50 [12]: 2.68 nM
Cl.O=C(CCc1ccoc1)N[C@H]1CC[C@@]2(O)[C@H]3Cc4ccc(O)c5c4[C@@]2(CCN3CC2CC2)[C@H]1O5 | – | <=40% | 0.44 nM | – | MPE [4]: 100%
CN(C(=O)CCc1ccco1)[C@@H]1CC[C@@]2(O)[C@H]3Cc4cccc5c4[C@@]2(CCN3CC2CC2)[C@H]1O5.Cl | 532 nM | 40% | 93.6 nM | 50.4 nM | –
CN(C(=O)CCc1ccoc1)[C@H]1CC[C@@]2(O)[C@H]3Cc4cccc5c4[C@@]2(CCN3CC2CC2)[C@H]1O5.Cl | 48.6 nM | 80% | 7.74 nM | 0.48 nM | –
CN(C(=O)/C=C/c1ccco1)[C@@H]1CC[C@@]2(O)[C@H]3Cc4cccc5c4[C@@]2(CCN3CC2CC2)[C@H]1O5.Cl | 2260 nM | 40% | 215 nM | 4.11 nM | Emax [7]: 82.1%
Cl.O=C(CCc1ccoc1)N[C@@H]1CC[C@@]2(O)[C@H]3Cc4cccc5c4[C@@]2(CCN3CC2CC2)[C@H]1O5 | 749 nM | 40% | 17.3 nM | 8.37 nM | –
CN(C(=O)/C=C/c1ccco1)[C@H]1CC[C@@]2(O)[C@H]3Cc4cccc5c4[C@@]2(CCN3CC2CC2)[C@H]1O5.Cl | 68.4 nM | 80% | 16.8 nM | 0.62 nM | Emax [7]: 102%
Cl.O=C(CCc1ccco1)N[C@H]1CC[C@@]2(O)[C@H]3Cc4ccc(O)c5c4[C@@]2(CCN3CC2CC2)[C@H]1O5 | – | <=40% | 0.72 nM | – | –
Cl.O=C(CCc1ccoc1)N[C@@H]1CC[C@@]2(O)[C@H]3Cc4ccc(O)c5c4[C@@]2(CCN3CC2CC2)[C@H]1O5 | – | <=40% | 0.21 nM | – | –
